Results from patent EP1964834A1, “Sulphonyltryptophanols” (Bayer Schering Pharma Aktiengesellschaft, priority 2007, dated 2008).

Each molecule was assayed against T1, human FSH receptor (Homo sapiens, UniProt P23945) (assay: HTRF assay for measuring cAMP in cells (FSH antagonism)). Settings: FSH antagonistic effect; hFSHR clone 16 cells (CHO cells stably transfected with the human FSH receptor); in the presence of 1 e-9 mol/I hFSH; 37°C for 2h.
T1 construct: expressed in transfected cells; host or cells: CHO cells (hFSHR clone 16)
T1 sequence (P23945 18-695): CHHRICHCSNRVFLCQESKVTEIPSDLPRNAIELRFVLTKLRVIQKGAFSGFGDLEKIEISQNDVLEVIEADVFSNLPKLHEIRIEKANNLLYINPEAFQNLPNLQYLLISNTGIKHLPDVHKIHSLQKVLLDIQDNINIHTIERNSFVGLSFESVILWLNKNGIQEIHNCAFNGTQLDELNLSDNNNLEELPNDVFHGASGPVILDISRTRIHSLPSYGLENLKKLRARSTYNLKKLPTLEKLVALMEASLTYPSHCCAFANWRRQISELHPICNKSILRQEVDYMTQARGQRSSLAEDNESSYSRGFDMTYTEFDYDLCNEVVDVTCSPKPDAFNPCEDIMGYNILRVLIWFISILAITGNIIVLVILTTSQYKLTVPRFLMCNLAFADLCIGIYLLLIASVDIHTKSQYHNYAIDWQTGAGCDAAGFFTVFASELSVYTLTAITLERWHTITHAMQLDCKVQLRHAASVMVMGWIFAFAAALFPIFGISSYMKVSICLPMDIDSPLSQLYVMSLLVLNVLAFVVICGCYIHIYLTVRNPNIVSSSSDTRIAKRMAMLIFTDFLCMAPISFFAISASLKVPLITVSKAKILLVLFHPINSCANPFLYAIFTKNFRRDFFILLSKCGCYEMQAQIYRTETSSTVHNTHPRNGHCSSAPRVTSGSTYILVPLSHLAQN
Format: cell-based
Procedure: HTRF assay for measuring cAMP in cells
The method is based on a competitive immunoassay between native cAMP, which has been produced by the cells, and cAMP which is labelled with cAMPD2 conjugate. The tracer binding was visualized by a monoclonal antibody, anti-cAMP labelled with cryptate [HTRF = homogeneous time-resolved fluorescence]. The specific signal is inversely proportional to the cAMP concentration of the samples employed. The 665nm/ 620nm fluorescence ratio was evaluated.
The following material was used: 96-well plates for the tissue culture, 96-well plates with black edge and black base (e.g. Fluotrac 600 from Greiner), 96-well plates for the substance dilutions of polypropylene and cAMP Femtomolar (4000wells Kit, CIS Bio International # 62AM5PEJ). The following reagents were used: BSA (bovine serum albumin) Fraction V protease-free, IBMX (3-isobutyl-1-methylxanthine), hFSH (human follicle stimulating hormone), Triton X-100 analytical grade, potassium fluoride analytical grade, G 418 (Geneticin) and Accutase. • Buffer 1 (washing and testing buffer) contained PBS, 1 mM CaCl2, 1 mM MgCl2, 0.2% glucose; 0.1% BSA, 1 mM IBMX. • Buffer 2 (2x lysis buffer) contained 1% Triton X-100 in PBS (without CaCl2 and MgCl2). • Buffer 3 (assay buffer) contained 50 mM potassium phosphate buffer (pH 7.0); 800 mM potassium fluoride; 0.2% BSA (always added fresh).
On day 1, the cells were seeded in 96-well plates (3x10^4 cells per well hFSHR clone 16 cells (CHO cells stably transfected with the human FSH receptor in 150 µl of medium). The next day, test substance dilutions were made up. For this purpose, all the substances were diluted in ice-cold buffer 1 (with or without hFSH), and the substance dilutions were placed on ice until applied to the cells.
The cell supernatant was then aspirated off, and the cells were washed 2x with 200 µl of buffer 1. The cells were treated with 60 µl of the appropriate substance concentrations at 37°C for 2h. The cells were then lysed with 60 µl of buffer 2 (put onto the supernatant) (on a plate shaker at RT for 30 min).
The test conjugates (cAMP-D2 and anti-cAMP cryptate, CIS Bio) were diluted in buffer 3 in accordance with the manufacturers' information. The actual mixture for measurement was pipetted into a black 96-well plate (in each case 15 µl of the cell lysate diluted with 35 µl of buffer 1; firstly 25 µl of cAMP-D2 conjugate were pipetted and, after 10 min, 25 µl of the anti-cAMP cryptate were added). This is followed by incubation at RT for 90 minutes. The measurement was carried out in a PheraStar (BMG).
1) hFSHr clone 16 Ham's F12 PSG 10% FCS 700 µg/ml G 418 (Geneticin) from PAA.
Dose-effect curve (hFSH) for the human receptor: 1e-8, 3e-9, 1e-9, 3e-10, 1e-10, 3e-11, 1e-11, 3e-12 mol/l.
The test substances were employed in suitable dilutions in the absence (test for agonism) and in the presence of 1 e-9 mol/I hFSH.
The values of the well ratio were averaged and then entered directly in SigmaPlot versus the concentrations. The maximum and minimum values were determined for each plate, and half the difference is to be regarded as IC50.

Row | IC50 [µM] | Compound
1 | 2.5 | CNC(=O)c1ccc(C#Cc2ccc(OC)c(S(=O)(=O)N[C@@H](CO)Cc3c[nH]c4ccccc34)c2)cc1 [Example 18, 4-{3-[(R)-2-Hydroxy-1-(1H-indol-3-ylmethyl)-ethylsulfamoyl]-4-methoxyphenylethynyl}-N-methyl-benzamide]
2 | 0.18 | CNC(=O)c1ccc(-c2ccc(OC(C)C)c(S(=O)(=O)N[C@@H](CO)Cc3c[nH]c4ccccc34)c2)cc1Cl [Example 9, 3-Chloro-3'-[(R)-2-hydroxy-1-(1H-indol-3-ylmethyl)-ethylsulfamoyl]-4'-isopropoxybiphenyl-4-carboxylic acid methylamide]
3 | 3.5 | COc1ccc(-c2cc(OC)c(OC)c(OC)c2)cc1S(=O)(=O)N[C@@H](CO)Cc1c[nH]c2ccccc12 [Example 1, 4,3',4',5'-Tetramethoxy-biphenyl-3-sulfonic acid [(R)-2-hydroxy-1-(1H-indol-3-ylmethyl)-ethyl]-amide]
4 | 3.5 | CNC(=O)c1ccc(C#Cc2ccc(OC)c(S(=O)(=O)N[C@H](Cc3c[nH]c4ccccc34)C(C)(C)O)c2)cc1 [Example 22, 4-{3-[(R)-2-Hydroxy-1-(1H-indol-3-ylmethyl)-2-methyl-propyisulfamoyl]-4-methoxyphenylethynyl}-N-methyl-benzamide]
5 | 4 | CNC(=O)c1ccc(-c2ccc(OC)c(S(=O)(=O)N[C@@H](CO)Cc3c[nH]c4ccccc34)c2)cc1Cl [Example 3, 3-Chloro-3'-[(R)-2-hydroxy-1-(1H-indol-3-ylmethyl)-ethylsulfamoyl]-4'-methoxybiphenyl-4-carboxylic acid me-thylamide]
